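Protocol summary: plate cells (96-well), add compound at 5 concentrations, incubate 48 h, interpolate endpoints linearly. At the GI50, growth is halved.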 Activity calls are given as the source filed them. Cut-off read from the data, not from the text of the source: active = GI50 up to about 1.1 µM and inactive = higher.
How the values were obtained:
Experiment in all cases: NCI-60 cell line screen, 48 h
786-0 = tested on: 786-0
COLO 205 = tested on: COLO 205
EKVX = tested on: EKVX
HCC 2998 = tested on: HCC 2998
HT-29 = tested on: HT-29
IGROV-1 = tested on: IGROV-1
KM12 = tested on: KM12
MCF7 = tested on: MCF7
MDA-MB-231 = tested on: MDA-MB-231
MDA-MB-435 = tested on: MDA-MB-435
MOLT-4 = tested on: MOLT-4
OVCAR-5 = tested on: OVCAR-5
OVCAR-8 = tested on: OVCAR-8
SF-295 = tested on: SF-295
TK-10 = tested on: TK-10
UACC-62 = tested on: UACC-62
RXF 393 = tested on: RXF 393
SF-539 = tested on: SF-539
T47D = tested on: T47D

For `CC(C)(CN1CCCCC1)C(/C=C/c1ccccc1)=N\NC(=O)N/N=C(/C=C/c1ccccc1)C(C)(C)CN1CCCCC1`, the GI50 (786-0) was 1.46 µM (inactive), the GI50 (COLO 205) was 1.44 µM (inactive) and the GI50 (EKVX) was 6.84 µM (inactive). The GI50 (HCC 2998) was 0.543 µM (active), the GI50 (HT-29) was 1.07 µM (active) and the GI50 (IGROV-1) was 2.51 µM (inactive). For the same molecule, the GI50 (KM12) was 2 µM (inactive), the GI50 (MCF7) was 1.71 µM (inactive) and the GI50 (MDA-MB-231) was 1.36 µM (inactive). For the same molecule, the GI50 (MDA-MB-435) was 1.51 µM (inactive), the GI50 (MOLT-4) was 1.67 µM (inactive) and the GI50 (OVCAR-5) was 4.29 µM (inactive). The GI50 (OVCAR-8) was 1.78 µM (inactive), the GI50 (SF-295) was 1.69 µM (inactive) and the GI50 (TK-10) was 1.75 µM (inactive). For the same molecule, the GI50 (UACC-62) was 1.54 µM (inactive).
In the case of `CSc1nc(Cl)c2c(n1)Sc1nc3cc4c(cc3n1C2O)OCO4` (centres undefined), the GI50 (786-0) is reported as 0.321 µM (active), the GI50 (COLO 205) is reported as 0.247 µM (active) and the GI50 (EKVX) is reported as 5.75 µM (inactive). The GI50 (HCC 2998) was 1.66 µM (inactive), the GI50 (HT-29) was 0.254 µM (active) and the GI50 (IGROV-1) was 0.392 µM (active). The GI50 (KM12) was 0.194 µM (active), the GI50 (MCF7) was 0.338 µM (active) and the GI50 (MDA-MB-231) was 0.391 µM (active). The GI50 (MDA-MB-435) was 0.232 µM (active), the GI50 (OVCAR-5) was 0.92 µM (active) and the GI50 (OVCAR-8) was 0.575 µM (active). The GI50 (RXF 393) was 1.96 µM (inactive), the GI50 (SF-295) was 0.818 µM (active) and the GI50 (SF-539) was 0.126 µM (active). For the same molecule, the GI50 (TK-10) was 1.65 µM (inactive) and the GI50 (UACC-62) was 0.43 µM (active).
For `O=C1C2=Cc3ccccc3CCN2c2ccccc21`, the GI50 (786-0) was 19.6 µM (inactive), the GI50 (COLO 205) was > 41.7 µM (inactive) and the GI50 (EKVX) was 29 µM (inactive). For the same molecule, the GI50 (HCC 2998) was 7.31 µM (inactive), the GI50 (HT-29) was 14.9 µM (inactive) and the GI50 (IGROV-1) was 30.2 µM (inactive). For the same molecule, the GI50 (KM12) was 26.7 µM (inactive), the GI50 (MCF7) was 14.9 µM (inactive) and the GI50 (MDA-MB-231) was > 41.9 µM (inactive). For the same molecule, the GI50 (MDA-MB-435) was 28.7 µM (inactive), the GI50 (MOLT-4) was 18.7 µM (inactive) and the GI50 (OVCAR-5) was 61.4 µM (inactive). The GI50 (OVCAR-8) was 23.6 µM (inactive), the GI50 (RXF 393) was > 10 µM (inactive) and the GI50 (SF-295) was 34.4 µM (inactive). For the same molecule, the GI50 (SF-539) was 16.4 µM (inactive), the GI50 (TK-10) was > 100 µM (inactive) and the GI50 (UACC-62) was > 10 µM (inactive).
In the case of `O=C1c2ccccc2C2=Nc3ccncc3CN12`, the GI50 (786-0) is reported as > 100 µM (inactive), the GI50 (COLO 205) is reported as > 100 µM (inactive) and the GI50 (EKVX) is reported as 25.9 µM (inactive). For the same molecule, the GI50 (HCC 2998) was > 100 µM (inactive), the GI50 (HT-29) was > 100 µM (inactive) and the GI50 (IGROV-1) was > 100 µM (inactive). For the same molecule, the GI50 (KM12) was 90.2 µM (inactive), the GI50 (MCF7) was > 100 µM (inactive) and the GI50 (MOLT-4) was > 100 µM (inactive). For the same molecule, the GI50 (OVCAR-5) was > 100 µM (inactive), the GI50 (OVCAR-8) was > 100 µM (inactive) and the GI50 (RXF 393) was > 100 µM (inactive). The GI50 (SF-295) was > 100 µM (inactive), the GI50 (SF-539) was > 100 µM (inactive) and the GI50 (TK-10) was > 100 µM (inactive). The GI50 (UACC-62) was > 100 µM (inactive).
`CC(=O)Nc1ccc(S(=O)(=O)/N=c2/sc(S(N)(=O)=O)nn2C)cc1` was tested, and the GI50 (786-0) was > 100 µM (inactive), the GI50 (COLO 205) was > 100 µM (inactive) and the GI50 (EKVX) was > 100 µM (inactive). The GI50 (HCC 2998) was > 100 µM (inactive), the GI50 (HT-29) was > 100 µM (inactive) and the GI50 (KM12) was > 100 µM (inactive). For the same molecule, the GI50 (MDA-MB-231) was > 100 µM (inactive), the GI50 (MDA-MB-435) was > 100 µM (inactive) and the GI50 (MOLT-4) was > 100 µM (inactive). The GI50 (OVCAR-5) was > 100 µM (inactive), the GI50 (OVCAR-8) was > 100 µM (inactive) and the GI50 (RXF 393) was > 100 µM (inactive). For the same molecule, the GI50 (SF-295) was > 100 µM (inactive), the GI50 (SF-539) was > 100 µM (inactive) and the GI50 (TK-10) was > 100 µM (inactive). For the same molecule, the GI50 (UACC-62) was > 100 µM (inactive).
With `COC(=O)/C(=N\N)C(C(=O)C(=O)Nc1cccc([N+](=O)[O-])c1)c1nc2ccc(C(=O)c3ccccc3)cc2nc1O` (centres undefined) the GI50 (786-0) was > 100 µM (inactive), the GI50 (COLO 205) was > 100 µM (inactive) and the GI50 (EKVX) was > 100 µM (inactive). The GI50 (HCC 2998) was > 100 µM (inactive), the GI50 (HT-29) was > 100 µM (inactive) and the GI50 (IGROV-1) was > 100 µM (inactive). The GI50 (KM12) was > 100 µM (inactive), the GI50 (MCF7) was 54.2 µM (inactive) and the GI50 (MDA-MB-231) was > 100 µM (inactive). For the same molecule, the GI50 (MDA-MB-435) was > 100 µM (inactive), the GI50 (MOLT-4) was 15 µM (inactive) and the GI50 (OVCAR-5) was > 100 µM (inactive). The GI50 (OVCAR-8) was > 100 µM (inactive), the GI50 (RXF 393) was 16.9 µM (inactive) and the GI50 (SF-295) was 96.4 µM (inactive). The GI50 (SF-539) was > 100 µM (inactive), the GI50 (TK-10) was 39.9 µM (inactive) and the GI50 (UACC-62) was 96.2 µM (inactive).
With `Cc1cc2nc(-c3cc(C(C)(C)C)c(O)c(C(C)(C)C)c3)[nH]c2cc1C` the GI50 (786-0) was 0.867 µM (active), the GI50 (COLO 205) was 2.9 µM (inactive) and the GI50 (EKVX) was > 39.1 µM (inactive). The GI50 (HCC 2998) was 5.81 µM (inactive), the GI50 (IGROV-1) was 5.08 µM (inactive) and the GI50 (KM12) was 3.39 µM (inactive). For the same molecule, the GI50 (MDA-MB-435) was > 23.3 µM (inactive), the GI50 (MOLT-4) was 1.82 µM (inactive) and the GI50 (OVCAR-5) was > 100 µM (inactive). For the same molecule, the GI50 (OVCAR-8) was 12.7 µM (inactive), the GI50 (RXF 393) was > 100 µM (inactive) and the GI50 (SF-295) was > 100 µM (inactive). For the same molecule, the GI50 (SF-539) was 28.1 µM (inactive), the GI50 (T47D) was > 100 µM (inactive) and the GI50 (TK-10) was > 22.3 µM (inactive). For the same molecule, the GI50 (UACC-62) was 0.979 µM (active).
`CC(=O)ON(OC(C)=O)c1ccc(C)cc1` was tested, and the GI50 (786-0) was > 100 µM (inactive), the GI50 (COLO 205) was > 100 µM (inactive) and the GI50 (EKVX) was > 100 µM (inactive). For the same molecule, the GI50 (HCC 2998) was > 100 µM (inactive), the GI50 (HT-29) was > 100 µM (inactive) and the GI50 (IGROV-1) was > 100 µM (inactive). The GI50 (KM12) was > 100 µM (inactive), the GI50 (MCF7) was > 100 µM (inactive) and the GI50 (MDA-MB-231) was > 100 µM (inactive). For the same molecule, the GI50 (MDA-MB-435) was > 100 µM (inactive), the GI50 (MOLT-4) was > 100 µM (inactive) and the GI50 (OVCAR-5) was > 100 µM (inactive). For the same molecule, the GI50 (OVCAR-8) was > 100 µM (inactive), the GI50 (RXF 393) was > 100 µM (inactive) and the GI50 (SF-295) was > 100 µM (inactive). For the same molecule, the GI50 (TK-10) was > 100 µM (inactive) and the GI50 (UACC-62) was > 100 µM (inactive).

From ChEMBL document CHEMBL1201862, “PubChem BioAssay data set” (2004)
